Experimental data as given in patent US20120196766A1, “Therapeutic Use of Farnesyltransferase Inhibitors and Methods of Monitoring the Efficacy Thereof” (priority 2004, published 2012).

Tested on: human PBMC
Assay: LPS-induced cytokine production in human PBMC
Assay type: cell-based
Description: Human IL-6, IL18, IL1β, MCP-1, MMP-9, and mouse IL-6, IL18, TNFα, MCP-1 and IL-1β were measured with ELISA kits (R&D Systems) according to the manufacturer's instructions.
Heparinized human blood (25 ml) from a healthy donor was overlaid into a 50 ml conical tubes containing 20 ml Ficoll-Paque, and centrifuged for 20 min at 2000 rpm at room temperature and then allowed to stop without using the brake on the centrifuge. The upper layer was aspirated, leaving the mononuclear cell layer undisturbed at the interface. Cells were carefully transferred the to a new […] conical tube. The conical tube was filled with PBS, mixed and centrifuged at 1500 rpm for 15 minutes at room temperature. The supernatant was carefully and completely removed. The cell pellet was resupended in 50 ml of PBS and centrifuged at 1500 rpm for 5 minutes. This wash step was repeated once more. The cells were counted and resuspended cells at 1.7×10^6/ml in low-endotoxin RPMI1640/10% FBS.
Human PBMC (180 μl at 1.7×10^6/ml) were pipetted into each well of a 96-well plate. […] Cells were incubated at 37° C., under 5% CO2 for 1 hour, then 10 μl LPS (diluted in medium) were added per well to reach a final concentration of 10 ng/ml. Cells were cultured at 37° C., under 5% CO2. Supernatants were collected at 16 hours, 24 hours and 40 hours of LPS treatment, and IL-6 secretion was quantified.

Cn1cncc1C(N)(c1ccc(Cl)cc1)c1ccc2c(c1)c(-c1cccc(Cl)c1)cc(=O)n2C (single isomer, unassigned; (+)) [tipifarnib, (+)-6-[amino(4-chlorophenyl)(1-methyl-1H-imidazol-5-yl)methyl]-4-(3-chlorophenyl)-1-methyl-2(1H)-quinolinone]
LPS-induced IL-6 production (tipifarnib 2 μM, LPS 10 ng/ml, 10% FBS): no effect | IL-6 mean value lower than in absence of compound (tipifarnib 5 μM, 24 hours, not statistically significant (P=0.104)): approximately 40% | LPS-induced IL-6 production (tipifarnib 5 μM, after 16 and 40 hours): highly significant inhibition
